Assay results taken from patent US20100087491A1, “POLYCYCLIC COMPOUNDS” (priority 2006, published 2010).

These compounds were tested against T1, S1P1 receptor (Homo sapiens, UniProt P21453) (assay: S1P1 (EDG-1) GTP[γ-35S] binding assay, membranes from CHO cells). Conditions: CHO cell membranes.
T1 construct: expressed in transfected cells
Type: biochemical
Description: A. In Vitro: GPCR Activation Assay Measuring GTP [γ-^35S] Binding to Membranes Prepared from CHO Cells Expressing Human S1P Receptors
S1P, (EDG-1) GTP [γ-^35S] binding assay: Homogenized membranes are prepared from CHO cell clones stably expressing a human EDG-1 N-terminal c-myc tag. Cells are grown in suspension in two 850 cm^2 roller bottles for three or fours days before harvesting. The cells are centrifuged down, washed once with cold PBS, and resuspended in ≦20 ml of Buffer A (20 mM HEPES, pH 7.4, […], EDTA-free complete protease inhibitor cocktail [1 tablet/25 ml]). The cell suspension is homogenized on ice, using a Polytron homogenizer at 30000 rpm at three intervals of 15 seconds each. The homogenate is first centrifuged at 2000 rpm on a tabletop low speed centrifuge for 10 minutes. The supernatant, after passing through a cell strainer, is then re-centrifuged at 50,000×g for 25 minutes at 4° C. The pellet is resuspended into buffer B (15% glycerol, 20 mM HEPES, pH 7.4, 0.1 mM EDTA, EDTA-free complete protease inhibitor cocktail [1 tablet/10 ml]). Protein concentration of the preparation is determined using the BCA Protein Assay kit (Pierce) using BSA as standard. The membranes are aliquoted and kept frozen at −80° C.
Solutions of test compounds ranging from 10 mM to 0.01 nM are prepared in DMSO. S1P is diluted in 4% BSA solution as positive controls. The desired amount of membrane preparation is diluted with ice-cold assay buffer (20 mM HEPES, pH 7.4, 100 mM NaCl, 10 mM MgCl2, 0.1% Fatty acid-free BSA, 5 μM GDP) and vortexed well. 2 μl or less of compound is distributed into each well of a round-bottom 96-well polystyrene assay plate, followed by addition of 100 μl of diluted membranes (3-10 μg/well) and kept on ice until the addition of hot GTPγS. [^35S]-GTPγS is diluted 1:1000 (v/v) with cold assay buffer and 100 μl is added into each well. The reaction is carried out at room temperature for 90 minutes before the membranes are harvested onto Perkin-Elmer Unifilter® GF/B-96 filter plate using a Packard Filtermate Harvester. […]

T1 sequence (P21453 whole entry): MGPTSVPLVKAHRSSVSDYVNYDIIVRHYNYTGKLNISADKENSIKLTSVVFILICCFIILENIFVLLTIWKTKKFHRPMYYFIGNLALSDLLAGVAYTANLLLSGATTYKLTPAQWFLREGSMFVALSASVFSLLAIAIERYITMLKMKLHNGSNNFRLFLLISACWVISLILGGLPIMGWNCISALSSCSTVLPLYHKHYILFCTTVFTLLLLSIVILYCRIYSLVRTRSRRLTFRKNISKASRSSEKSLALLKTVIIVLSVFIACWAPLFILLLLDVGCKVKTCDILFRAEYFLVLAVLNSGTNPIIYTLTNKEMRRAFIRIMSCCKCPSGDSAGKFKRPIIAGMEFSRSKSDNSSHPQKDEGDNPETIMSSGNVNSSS

EC50, < 100 nM:
CNCc1ccc(-c2noc(-c3ccc(-c4ccccc4)c(C(F)(F)F)c3)n2)cc1 [Example 44]
CCOc1ccc(-c2nc(-c3ccc(CN)cc3)no2)cc1C(F)(F)F [Example 21]
CCc1cc(-c2noc(-c3ccc(OC(C)C)c(-c4ccccc4)c3)n2)ccc1S(N)(=O)=O [Example 105]
